From publication PMC9866191, “Novel 9-Benzylaminoacridine Derivatives as Dual Inhibitors of Phosphodiesterase 5 and Topoisomerase II for the Treatment of Colon Cancer” (Molecules, 2023)

Assays:
Type in all cases: cell-based
[1] = system: panel of 60 human tumor cell lines; experiment: NCI 60-cell line one-dose screen (mean); conditions: mean of the 60 cell lines, single dose 10^−5 M, read-out: Mean % Growth Inhibition
Description: (§1) The newly synthesized compounds were screened for their in vitro anticancer activity at the Developmental Therapeutic Program (DTP) of the National Cancer Institute (NCI). The screening involved a panel of 60 human tumor cell lines consisting of 9 tissue types to screen for potential anti-cancer agents. The primary screening of submitted compounds was performed by testing a single dose (10^−5 M) in the full NCI-60 panel. The detailed % inhibition by the tested compounds against the 60 cell lines is shown in Tables S1–S3 in the Supporting Information.

M14 = experiment: NCI-60 one-dose screen; conditions: Homo sapiens; M14, Melanoma panel; single dose 10^−5 M; read-out: Growth inhibition %
Description: as §1

BT-549 = experiment: NCI-60 one-dose screen; conditions: Homo sapiens; BT-549, Breast Cancer panel; single dose 10^−5 M; read-out: Growth inhibition %
Description: as §1

NCI-H226 = experiment: NCI-60 one-dose screen; conditions: Homo sapiens; NCI-H226, Non-small cell lung panel; single dose 10^−5 M; read-out: Growth inhibition %
Description: as §1

HCT-116 = experiment: NCI-60 one-dose screen; conditions: Homo sapiens, read-out: Growth inhibition %
Description: as §1

A498 = experiment: NCI-60 one-dose screen; conditions: Homo sapiens; A498, Renal Cancer panel; single dose 10^−5 M; read-out: Growth inhibition %
Description: as §1

A549/ATCC = experiment: NCI-60 one-dose screen; conditions: Homo sapiens, Non-small cell lung panel, single dose 10^−5 M, read-out: Growth inhibition %
Description: as §1

SNB-75 = experiment: NCI-60 one-dose screen; conditions: Homo sapiens; SNB-75, CNS Cancer panel; single dose 10^−5 M; read-out: Growth inhibition %
Description: as §1

RXF 393 = experiment: NCI-60 one-dose screen; conditions: Homo sapiens; RXF 393, Renal Cancer panel; single dose 10^−5 M; read-out: Growth inhibition %
Description: as §1

EKVX = experiment: NCI-60 one-dose screen; conditions: Homo sapiens, Non-small cell lung panel, single dose 10^−5 M, read-out: Growth inhibition %
Description: as §1

MDA-MB-231/ATCC = experiment: NCI-60 one-dose screen; conditions: Homo sapiens, Breast Cancer panel, single dose 10^−5 M, read-out: Growth inhibition %
Description: as §1

K-562 = experiment: NCI-60 one-dose screen; conditions: Homo sapiens, K562; K-562, Leukemia panel; single dose 10^−5 M; read-out: Growth inhibition %
Description: as §1

OVCAR-4 = experiment: NCI-60 one-dose screen; conditions: Homo sapiens; OVCAR-4, Ovarian Cancer panel; single dose 10^−5 M; read-out: Growth inhibition %
Description: as §1

SK-OV-3 = experiment: NCI-60 one-dose screen; conditions: Homo sapiens; SK-OV-3, Ovarian Cancer panel; single dose 10^−5 M; read-out: Growth inhibition %
Description: as §1

COLO 205 = experiment: NCI-60 one-dose screen; conditions: Homo sapiens; COLO 205, Colon Cancer panel; single dose 10^−5 M; read-out: Growth inhibition %
Description: as §1

UO-31 = experiment: NCI-60 one-dose screen; conditions: Homo sapiens; UO-31, Renal Cancer panel; single dose 10^−5 M; read-out: Growth inhibition %
Description: as §1

MOLT-4 = experiment: NCI-60 one-dose screen; conditions: Homo sapiens; MOLT-4, Leukemia panel; single dose 10^−5 M; read-out: Growth inhibition %
Description: as §1

OVCAR-8 = experiment: NCI-60 one-dose screen; conditions: Homo sapiens; OVCAR-8, Ovarian Cancer panel; single dose 10^−5 M; read-out: Growth inhibition %
Description: as §1

NCI-H23 = experiment: NCI-60 one-dose screen; conditions: Homo sapiens; NCI-H23, Non-small cell lung panel; single dose 10^−5 M; read-out: Growth inhibition %
Description: as §1

HCC-2998 = experiment: NCI-60 one-dose screen; conditions: Homo sapiens; HCC-2998, Colon Cancer panel; single dose 10^−5 M; read-out: Growth inhibition %
Description: as §1

SK-MEL-5 = experiment: NCI-60 one-dose screen; conditions: Homo sapiens; SK-MEL-5, Melanoma panel; single dose 10^−5 M; read-out: Growth inhibition %
Description: as §1

U251 = experiment: NCI-60 one-dose screen; conditions: Homo sapiens, U-251; U251, CNS Cancer panel; single dose 10^−5 M; read-out: Growth inhibition %
Description: as §1

HOP-62 = experiment: NCI-60 one-dose screen; conditions: Homo sapiens; HOP-62, Non-small cell lung panel; single dose 10^−5 M; read-out: Growth inhibition %
Description: as §1

SF-539 = experiment: NCI-60 one-dose screen; conditions: Homo sapiens; SF-539, CNS Cancer panel; single dose 10^−5 M; read-out: Growth inhibition %
Description: as §1

SW-620 = experiment: NCI-60 one-dose screen; conditions: Homo sapiens; SW-620, Colon Cancer panel; single dose 10^−5 M; read-out: Growth inhibition %
Description: as §1

NCI-H522 = experiment: NCI-60 one-dose screen; conditions: Homo sapiens; NCI-H522, Non-small cell lung panel; single dose 10^−5 M; read-out: Growth inhibition %
Description: as §1

SN12C = experiment: NCI-60 one-dose screen; conditions: Homo sapiens, Renal Cancer panel, single dose 10^−5 M, read-out: Growth inhibition %
Description: as §1

UACC-257 = experiment: NCI-60 one-dose screen; conditions: Homo sapiens; UACC-257, Melanoma panel; single dose 10^−5 M; read-out: Growth inhibition %
Description: as §1

MALME-3M = experiment: NCI-60 one-dose screen; conditions: Homo sapiens, Melanoma panel, single dose 10^−5 M, read-out: Growth inhibition %
Description: as §1

NCI-H460 = experiment: NCI-60 one-dose screen; conditions: Homo sapiens; NCI-H460, Non-small cell lung panel; single dose 10^−5 M; read-out: Growth inhibition %
Description: as §1

ACHN = experiment: NCI-60 one-dose screen; conditions: Homo sapiens, Renal Cancer panel, single dose 10^−5 M, read-out: Growth inhibition %
Description: as §1

SMILES	inhibition at 10 µM [1] [%]	inhibition at 10 µM (M14) [%]	inhibition at 10 µM (BT-549) [%]	inhibition at 10 µM (NCI-H226) [%]	inhibition at 10 µM (HCT-116) [%]	inhibition at 10 µM (A498) [%]	inhibition at 10 µM (A549/ATCC) [%]	inhibition at 10 µM (SNB-75) [%]	inhibition at 10 µM (RXF 393) [%]	inhibition at 10 µM (EKVX) [%]	inhibition at 10 µM (MDA-MB-231/ATCC) [%]	inhibition at 10 µM (K-562) [%]	inhibition at 10 µM (OVCAR-4) [%]	inhibition at 10 µM (SK-OV-3) [%]	inhibition at 10 µM (COLO 205) [%]	inhibition at 10 µM (UO-31) [%]	inhibition at 10 µM (MOLT-4) [%]	inhibition at 10 µM (OVCAR-8) [%]	inhibition at 10 µM (NCI-H23) [%]	inhibition at 10 µM (HCC-2998) [%]	also measured
COc1ccc2nc3ccccc3c(NCc3ccc(Cl)cc3)c2c1 [Compound 29, (4-Chlorobenzyl)-(2-methoxyacridin-9-yl)-amine]	93.3	186	49.8	51.2	93.2	91.4	76.4	42.4	124	66.2	75.7	130	75.5	36	162	98.1	108	70.3	71.7	188	inhibition at 10 µM (SK-MEL-5): 88.3%; inhibition at 10 µM (U251): 97.5%; inhibition at 10 µM (HOP-62): 57.6%; inhibition at 10 µM (SF-539): 106%; inhibition at 10 µM (SW-620): 87.2%; inhibition at 10 µM (NCI-H522): 65.3%; inhibition at 10 µM (SN12C): 77.9%; inhibition at 10 µM (UACC-257): 152%; inhibition at 10 µM (MALME-3M): 182%; inhibition at 10 µM (NCI-H460): 87.5%; inhibition at 10 µM (ACHN): 82.9%
c1coc(CNc2c3ccccc3nc3ccccc23)c1 [Compound 14, Acridin-9-yl-furan-2-ylmethyl-amine]	38.4	20.3	2.59	37.1	76	79.9	38.1	18.5	38.5	38	39.5	55.3	43.1	29.1	64.8	60.5	72.8	52.5	36.4	31.1	inhibition at 10 µM (SK-MEL-5): 15.7%; inhibition at 10 µM (U251): 34.9%; inhibition at 10 µM (HOP-62): 30.4%; inhibition at 10 µM (SF-539): 34.1%; inhibition at 10 µM (SW-620): 57.7%; inhibition at 10 µM (NCI-H522): 52.7%; inhibition at 10 µM (SN12C): 46.5%; inhibition at 10 µM (UACC-257): 18.3%; inhibition at 10 µM (MALME-3M): 9.63%; inhibition at 10 µM (NCI-H460): 43.5%; inhibition at 10 µM (ACHN): 73.8%
